Measured values reported in ChEMBL document CHEMBL1909046, “DrugMatrix in vitro pharmacology data”.

Assays:
[1] = biological target: 5-hydroxytryptamine receptor 4 (Cavia porcellus, UniProt O70528); format: cell membranes, Dunkin-Hartley, Striatum, Membrane; note: in other assays of this panel Not Active means under 50% inhibition at 10 µM
Vasopressin V1a receptor = Vasopressin V1a receptor (Homo sapiens, UniProt P37288); format: cell membranes, Membrane; conditions: hek293; note: in other assays of this panel Not Active means under 50% inhibition at 10 µM
Chain of Vasopressin V1a receptor (P37288 whole entry): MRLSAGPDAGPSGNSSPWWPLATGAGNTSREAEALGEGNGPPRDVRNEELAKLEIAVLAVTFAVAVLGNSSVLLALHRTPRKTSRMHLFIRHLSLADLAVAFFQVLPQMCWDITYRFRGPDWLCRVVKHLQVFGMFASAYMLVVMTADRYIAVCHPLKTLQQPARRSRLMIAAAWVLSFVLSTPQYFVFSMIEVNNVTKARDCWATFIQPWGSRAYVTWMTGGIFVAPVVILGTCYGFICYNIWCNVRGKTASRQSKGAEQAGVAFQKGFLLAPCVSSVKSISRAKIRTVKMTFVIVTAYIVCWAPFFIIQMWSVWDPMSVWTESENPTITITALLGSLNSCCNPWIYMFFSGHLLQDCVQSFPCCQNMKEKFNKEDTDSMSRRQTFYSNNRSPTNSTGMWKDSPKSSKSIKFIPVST

[2] = DRUGMATRIX: GABAA, Chloride Channel, TBOB radioligand binding (ligand: [3H] TBOB); format: cell membranes, Rattus norvegicus, Wistar, Cerebral cortex, Membrane; conditions: Not Active = under 50% inhibition at 10 µM
[3] = biological target: T1, Cysteinyl leukotriene receptor 1 (Homo sapiens, UniProt Q9Y271); format: cell membranes, Membrane; conditions: cho-k1; note: in other assays of this panel Not Active means under 50% inhibition at 10 µM
T1 sequence (Q9Y271 whole entry): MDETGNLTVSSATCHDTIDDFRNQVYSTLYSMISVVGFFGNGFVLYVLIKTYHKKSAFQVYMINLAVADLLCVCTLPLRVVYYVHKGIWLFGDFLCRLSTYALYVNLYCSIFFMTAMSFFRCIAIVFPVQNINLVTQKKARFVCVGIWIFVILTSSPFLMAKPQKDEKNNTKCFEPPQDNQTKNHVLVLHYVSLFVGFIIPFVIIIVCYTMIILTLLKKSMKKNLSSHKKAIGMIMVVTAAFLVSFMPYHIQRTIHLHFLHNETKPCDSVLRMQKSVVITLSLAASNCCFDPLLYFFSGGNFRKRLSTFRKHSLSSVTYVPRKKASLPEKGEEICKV

[4] = biological target: T2, Amine oxidase [flavin-containing] A (Homo sapiens, UniProt P21397); test: DRUGMATRIX: Monoamine Oxidase MAO-A enzyme inhibition (substrate: Kynuramine); set-up: species or system BTI-TN-5B1-4; conditions: Not Active = under 50% inhibition at 10 µM
T2 sequence (P21397 whole entry): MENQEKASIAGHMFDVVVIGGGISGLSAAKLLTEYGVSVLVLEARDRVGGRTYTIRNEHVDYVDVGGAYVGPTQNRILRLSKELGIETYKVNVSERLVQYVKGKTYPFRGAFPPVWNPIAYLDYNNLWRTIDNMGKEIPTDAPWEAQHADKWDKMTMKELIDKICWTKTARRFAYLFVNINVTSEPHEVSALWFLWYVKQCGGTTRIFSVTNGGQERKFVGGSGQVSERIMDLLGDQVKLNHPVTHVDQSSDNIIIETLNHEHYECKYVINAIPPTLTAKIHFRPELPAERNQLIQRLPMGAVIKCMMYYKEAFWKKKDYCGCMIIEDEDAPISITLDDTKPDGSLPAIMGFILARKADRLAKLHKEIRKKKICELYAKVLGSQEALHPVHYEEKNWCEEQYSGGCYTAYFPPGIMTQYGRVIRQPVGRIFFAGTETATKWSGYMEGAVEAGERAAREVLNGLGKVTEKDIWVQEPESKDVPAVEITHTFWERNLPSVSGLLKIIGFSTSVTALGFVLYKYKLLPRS

Cathepsin G = biological target: T3, Cathepsin G (Homo sapiens, UniProt P08311); format: tissue-based; conditions: neutrophil;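 note: inhibition of Cathepsin G enzyme activity, tested on an AMC-conjugated peptide substrate; in other assays of this panel Not Active means under 50% inhibition at 10 µM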
T3 sequence (P08311 whole entry): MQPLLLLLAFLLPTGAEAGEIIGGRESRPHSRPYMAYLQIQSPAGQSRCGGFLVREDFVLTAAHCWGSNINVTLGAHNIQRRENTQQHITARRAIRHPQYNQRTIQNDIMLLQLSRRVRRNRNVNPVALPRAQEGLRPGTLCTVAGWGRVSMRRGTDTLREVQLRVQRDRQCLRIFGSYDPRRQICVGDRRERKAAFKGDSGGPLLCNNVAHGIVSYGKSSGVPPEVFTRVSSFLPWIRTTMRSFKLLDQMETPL

[5] = biological target: Tyrosine-protein kinase Fyn (Homo sapiens, UniProt P06241); test: biochemical; format: cell-based, Insect cells; conditions: insect cells
Chain of Tyrosine-protein kinase Fyn (P06241 whole entry): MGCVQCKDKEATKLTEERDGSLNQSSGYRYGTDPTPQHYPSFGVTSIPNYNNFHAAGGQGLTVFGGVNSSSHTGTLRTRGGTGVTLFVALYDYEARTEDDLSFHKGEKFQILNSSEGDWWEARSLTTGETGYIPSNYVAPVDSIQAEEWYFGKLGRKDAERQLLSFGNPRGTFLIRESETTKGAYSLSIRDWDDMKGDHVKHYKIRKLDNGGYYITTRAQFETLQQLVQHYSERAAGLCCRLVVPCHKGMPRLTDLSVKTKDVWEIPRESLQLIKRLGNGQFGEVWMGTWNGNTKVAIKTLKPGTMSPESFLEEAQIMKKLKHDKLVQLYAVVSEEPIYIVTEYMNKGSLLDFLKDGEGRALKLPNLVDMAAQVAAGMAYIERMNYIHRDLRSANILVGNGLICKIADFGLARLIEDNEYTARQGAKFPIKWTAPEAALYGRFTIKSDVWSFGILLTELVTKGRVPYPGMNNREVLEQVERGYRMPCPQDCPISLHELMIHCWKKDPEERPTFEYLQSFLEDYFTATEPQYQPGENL

Chain of 5-hydroxytryptamine receptor 4 (O70528 whole entry): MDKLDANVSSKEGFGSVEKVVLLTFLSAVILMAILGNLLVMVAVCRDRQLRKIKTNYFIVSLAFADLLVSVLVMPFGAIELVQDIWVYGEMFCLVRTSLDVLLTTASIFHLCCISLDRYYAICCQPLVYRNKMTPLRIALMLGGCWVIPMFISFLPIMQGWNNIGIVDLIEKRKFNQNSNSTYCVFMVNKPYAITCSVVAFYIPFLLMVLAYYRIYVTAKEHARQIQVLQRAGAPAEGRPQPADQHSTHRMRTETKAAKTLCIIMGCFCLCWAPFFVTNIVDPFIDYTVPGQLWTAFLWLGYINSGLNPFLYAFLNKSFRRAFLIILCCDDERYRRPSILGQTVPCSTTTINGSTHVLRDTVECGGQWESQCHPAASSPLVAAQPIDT

Structure (SMILES)	IC50 [1]	IC50 (Vasopressin V1a receptor)	IC50 [2]	Ki [2]	IC50 [3]	IC50 ([4]; bti-tn-5b1-4)	IC50 (Cathepsin G)	IC50 [5]	IC50 ([4]; read-out: IC50) [µM]
C[N+](C)(C)C[C@H](O)CC(=O)[O-] [LEVOCARNITINE]	Not Active	Not Active	Not Active	Not Active	Not Active	Not Active	Not Active	Not Active	–
C[C@H]1COc2c(N3CCN(C)CC3)c(F)cc3c(=O)c(C(=O)O)cn1c23.C[C@H]1COc2c(N3CCN(C)CC3)c(F)cc3c(=O)c(C(=O)O)cn1c23.O [LEVOFLOXACIN]	Not Active	Not Active	Not Active	Not Active	Not Active	Not Active	Not Active	Not Active	–
CCn1cc(C(=O)O)c(=O)c2cc(F)c(N3CCNC(C)C3)c(F)c21 (configuration not stated) [LOMEFLOXACIN]	Not Active	Not Active	Not Active	Not Active	Not Active	Not Active	Not Active	Not Active	–
CN1CCCC(CN2c3ccccc3Sc3ccccc32)C1 (configuration not stated) [MEPAZINE]	Not Active	Not Active	Not Active	Not Active	Not Active	Not Active	Not Active	Not Active	–
Cc1cccc(C)c1NC(=O)C1CCCCN1C (configuration not stated) [MEPIVACAINE]	Not Active	Not Active	Not Active	Not Active	Not Active	Not Active	Not Active	Not Active	–
CN(C)C(=N)NC(=N)N [METFORMIN]	Not Active	Not Active	Not Active	Not Active	Not Active	Not Active	Not Active	Not Active	–
CC(C)(C)NCC(O)COc1cccc2c1CC(O)C(O)C2 (configuration not stated) [NADOLOL]	Not Active	Not Active	Not Active	Not Active	Not Active	Not Active	Not Active	Not Active	–
C[C@]12CC[C@H]3[C@@H](CCC4=CC(=O)CC[C@@H]43)[C@@H]1CC[C@@H]2O [NANDROLONE]	Not Active	Not Active	Not Active	Not Active	Not Active	Not Active	Not Active	Not Active	–
C[C@@H]1C/C=C/C=C/C=C/C=C/[C@H](O[C@@H]2O[C@H](C)[C@@H](O)[C@H](N)[C@@H]2O)C[C@@H]2O[C@](O)(C[C@@H](O)C[C@H]3O[C@@H]3/C=C/C(=O)O1)C[C@H](O)[C@H]2C(=O)O [NATAMYCIN]	Not Active	Not Active	Not Active	Not Active	Not Active	Not Active	Not Active	Not Active	–
CN(C)C(=O)Oc1cccc([N+](C)(C)C)c1.[Br-] [NEOSTIGMINE BROMIDE]	Not Active	Not Active	Not Active	Not Active	Not Active	Not Active	Not Active	Not Active	–
NC(=O)c1cccnc1 [NIACINAMIDE]	Not Active	Not Active	Not Active	Not Active	Not Active	Not Active	Not Active	Not Active	–
CS(=O)(=O)Nc1ccc([N+](=O)[O-])cc1Oc1ccccc1 [NIMESULIDE]	Not Active	Not Active	Not Active	Not Active	Not Active	Not Active	Not Active	Not Active	–
CN1C(=O)CN=C(c2ccccc2)c2cc([N+](=O)[O-])ccc21 [NIMETAZEPAM]	Not Active	Not Active	Not Active	Not Active	Not Active	Not Active	Not Active	Not Active	–
COc1ccc2c(c1OC)C(=O)O[C@@H]2[C@H]1c2c(cc3c(c2OC)OCO3)CCN1C [NOSCAPINE]	Not Active	Not Active	Not Active	Not Active	Not Active	Not Active	Not Active	Not Active	–
C[C@@H]1O[C@@H](O[C@H]2C[C@@H](O)[C@]3(CO)[C@H]4[C@H](O)C[C@]5(C)[C@@H](C6=CC(=O)OC6)CC[C@]5(O)[C@@H]4CC[C@]3(O)C2)[C@H](O)[C@H](O)[C@H]1O [OUABAIN]	Not Active	Not Active	Not Active	Not Active	Not Active	Not Active	Not Active	Not Active	–
NC(=O)N1c2ccccc2CC(=O)c2ccccc21 [OXCARBAZEPINE]	Not Active	Not Active	Not Active	Not Active	Not Active	Not Active	Not Active	Not Active	–
COc1ccnc(C[S+]([O-])c2nc3ccc(OC(F)F)cc3[nH]2)c1OC (configuration not stated) [PANTOPRAZOLE]	Not Active	Not Active	Not Active	Not Active	Not Active	Not Active	Not Active	Not Active	–
N=C(N)c1ccc(OCCCCCOc2ccc(C(=N)N)cc2)cc1 [PENTAMIDINE]	Not Active	Not Active	Not Active	Not Active	Not Active	–	Not Active	Not Active	0.793
CCc1ccc(CCOc2ccc(CC3SC(=O)NC3=O)cc2)nc1 (configuration not stated) [PIOGLITAZONE]	Not Active	Not Active	Not Active	Not Active	Not Active	–	Not Active	Not Active	35.1
CCCNC(C)C(=O)Nc1ccccc1C (configuration not stated) [PRILOCAINE]	Not Active	Not Active	Not Active	Not Active	Not Active	Not Active	Not Active	Not Active	–
CCN(CC)CCNC(=O)c1ccc(N)cc1 [PROCAINAMIDE]	Not Active	Not Active	Not Active	Not Active	Not Active	Not Active	Not Active	Not Active	–
CCN(CC)CCCC(C)Nc1c2ccc(Cl)cc2nc2ccc(OC)cc12 (configuration not stated) [QUINACRINE]	Not Active	Not Active	Not Active	Not Active	Not Active	Not Active	Not Active	Not Active	–
C[C@]12C=CC(=O)C=C1CC[C@H]1[C@@H]3C[C@@H](O)[C@](O)(C(=O)CO)[C@@]3(C)C[C@H](O)[C@@]12F [TRIAMCINOLONE]	Not Active	Not Active	Not Active	Not Active	Not Active	Not Active	Not Active	Not Active	–
CC[C@]1(O)C[C@@H]2CN(CCc3c([nH]c4ccccc34)[C@@](C(=O)OC)(c3cc4c(cc3OC)N(C)[C@H]3[C@@](O)(C(N)=O)[C@H](O)[C@]5(CC)C=CCN6CC[C@]43[C@@H]65)C2)C1 [VINDESINE]	Not Active	Not Active	Not Active	Not Active	Not Active	Not Active	Not Active	Not Active	–
